These are literature values, as cited in patent US20090193593A1, “METHOD FOR REFRESHING FABRIC ARTICLES” (priority 2008, published 2009).

Where a name gives a salt, the structure may show the parent alone.

`OCCOc1ccccc1` [2-phenoxyethanol]: the Solubility in water result is listed as “about 2.67%”.
Regarding `OCCc1ccccc1` [2-phenylethanol], the Solubility in water entry is “about 2%”.
Consider `OCc1ccccc1` [benzyl alcohol], for which the Solubility in water result is “about 4%”.
`[H]/N=C(\N/C(=N/[H])NCCCCCCNC(=N)NC(=N)Nc1ccc(Cl)cc1)Nc1ccc(Cl)cc1` [chlorhexidine diacetate salt, 1,1′-hexamethylene bis(5-(p-chlorophenyl)biguanide), reference compound]: the Solubility in water entry was “about 1.8%”.
As to `[H]/N=C(\N/C(=N/[H])NCCCCCCNC(=N)NC(=N)Nc1ccc(Cl)cc1)Nc1ccc(Cl)cc1` [chlorhexidine digluconate salt, 1,1′-hexamethylene bis(5-(p-chlorophenyl)biguanide), reference compound], the Solubility in water result is given as “about 70%”.
